Earlier results as cited in patent publication US20220079889A1, “USE OF CANNABANOIDS IN THE TREATMENT OF PROLIFERATIVE DIABETIC RETINOPATHY” (VERDANT PHARMACEUTICALS, LLC, priority 2020, published 2022).

Details: typical value; cited from earlier work

Compound	time of persistence in the target neovasculature
C=Cc1c(C)c2cc3nc(c(CC(=O)N[C@@H](CC(=O)O)C(=O)O)c4[nH]c(cc5nc(cc1[nH]2)C(C)=C5CC)c(C)c4C(=O)O)[C@@H](CCC(=O)O)[C@@H]3C [N-aspartyl chlorin e6]	about twenty
CC(=O)[O-].CC(=O)[O-].CCc1c(CC)c2cc3nc(cnc4cc(OCCOCCOCCOC)c(OCCOCCOCCOC)cc4ncc4nc(cc1[n-]2)C(CCCO)=C4C)C(C)=C3CCCO.O.[Lu+3] [lutetium texaphyrin]	about twenty
benzoporphyrin derivative [bcnzoporphyrin derivative]	about fifty
